“And” between values parts separate entries of the source, which are not always exact repeats. Equal entries are not always repeated.
Key:
[1] = biological target: T1, human GPR84-Gαi2 fusion protein (Homo sapiens, UniProt Q9NQS5); assay: [^35S]GTPγS binding assay, membranes of Flp-In TREx 293 cells expressing human GPR84-Gαi2; assay type: biochemical; settings: for pA2: Gaddum/Schild analysis, shifts in potency of 2-HTP, mean ± SEM; for Gaddum/Schild slope: Schild plots versus 2-HTP
Experimental: (§1) All data are presented as means ± SEM of at least three independent experiments. Data analysis and curve fitting was carried out using the GraphPad Prism software package version 8 (GraphPad, San Diego). […] In case of inhibition experiments with antagonists, an equivalent analysis was followed to fit an inverse sigmoidal curve. To perform the statistical analysis of curve parameters, data from multiple experiments were fitted independently and resulting curve fit values were analyzed with indicated tests. Antagonism experiments carried out with multiple defined concentrations of antagonist were fit to a global Gaddum/Schild EC50 shift equation to estimate pA2 values for the antagonist. For radioligand binding data, saturation binding curves were generated by fitting the specific binding, which was obtained by subtracting nonspecific from total binding, to a one site specific binding model that allows calculation of Kd values for the radioligand at wild-type and mutant receptors.

[2] = biological target: T2, GPR84 in LPS-treated THP-1 cells (Homo sapiens, UniProt Q9NQS5); assay: [^35S]GTPγS binding assay, membranes of LPS-treated THP-1 cells; assay type: biochemical; settings: LPS-treated THP-1 membranes
T2 construct: GPR84 expressed endogenously in human-derived cell lines and tissue; endogenous in cells; host or cells: THP-1 cells, 100 ng/mL LPS for 24 h, membranes

[3] = biological target: T1, human GPR84-Gαi2 fusion protein; assay: cAMP assay in Flp-In TREx 293 cells expressing human GPR84-Gαi2; assay type: cell-based
Experimental: cAMP experiments were performed using Flp-In T-REx293 cells induced to express the receptor of interest or CHO-K1 cells stably expressing the orthologue of interest. Experiments were carried out using a homogeneous time-resolved FRET-based detection kit (CisBio, Codolet, France) according to the manufacturer’s protocol. For the assay cells were plated at 5000 cells/well in low-volume 384-well plates. The ability of agonists to inhibit 1 μM forskolin-induced cAMP production was assessed following a preincubation for 15 min with antagonist compounds, then a further 30 min incubation with agonist compounds. Reactions were stopped according to the manufacturer’s instructions and the output was measured with a PHERAstar FS plate reader (BMG Labtech, Aylesbury, UK).

[4] = biological target: GPR84 in RAW264.7 cells (Mus musculus, UniProt Q8CIM5); assay: [^35S]GTPγS binding assay, membranes of RAW264.7 cells; settings: RAW264.7 membranes
[5] = biological target: T3, ECL3/TM7 chimeric human/mouse GPR84 (Mus musculus, UniProt Q8CIM5, G345V/R346Q/S363G/V354L); assay: Antagonism of 2-HTP at ECL3/TM7 human/mouse GPR84 chimera in Flp-In TREx 293 cells; assay type: cell-based
T3 construct: expressed in transfected cells; host or cells: Flp-In TREx 293 cells
Text: (§2) Chimeric human-mouse GPR84-HA constructs were generated using synthetic DNA sequences purchased from Eurofins Genomics (Luxembourg), that were then subcloned in-frame into the BamH1 and Xho1 sites of pcDNA5/FRT/TO.

[6] = biological target: T4, Humanized mGPR84 (Homo sapiens, UniProt Q9NQS5, A294V/A296R/A298P/D231Q/D276G/G248R/H223R/H226Q/I278G/I301T/K216G/K284Q/K289R/K302A/L245V/M286I/N225H/N279I/P291L/P300E/P308T/Q210R/Q299R/Q379H/Q48R/R218H/R229G/R237H/R244G/R282A/R390Q/S280R/S295H/S310A/S311P/V274A); assay: Antagonism of 2-HTP at humanized mGPR84 chimera in Flp-In TREx 293 cells; assay type: cell-based; settings: all ECL and TMD residues human in mouse backbone
T4 construct: expressed in transfected cells; host or cells: Flp-In TREx 293 cells
Text: as §2

[7] = test system: Thr^102Ala, Ser^363Gly mouse GPR84; assay: [^35S]GTPγS binding assay, Thr102Ala-Ser363Gly mouse GPR84 mutant; assay type: biochemical
Experimental: (§3) The Stratagene QuikChange method (Stratagene, Agilent Technologies, Santa Clara, CA) was used to introduce alterations into FLAG-human GPR84-Gαi2 or FLAG-mouse GPR84-Gαi2. Primers utilized for mutagenesis were provided by MWG Operon (Acton, UK). Template DNA was digested with DpnI to leave only the newly synthesized mutated plasmid, and sequencing was carried out to confirm the introduction of the alterations.
(§4) All data are presented as means ± SEM of at least three independent experiments. Data analysis and curve fitting was carried out using the GraphPad Prism software package version 8 (GraphPad, San Diego). For functional assays the concentration–response data were plotted on a log axis, with the untreated vehicle control plotted at 1 log unit lower than the lowest ligand concentration and fitted to a three parameter sigmoidal curve with the Hill slope constrained to equal 1. In case of inhibition experiments with antagonists, an equivalent analysis was followed to fit an inverse sigmoidal curve. To perform the statistical analysis of curve parameters, data from multiple experiments were fitted independently and resulting curve fit values were analyzed with indicated tests. Antagonism experiments carried out with multiple defined concentrations of antagonist were fit to a global Gaddum/Schild EC50 shift equation to estimate pA2 values for the antagonist. For radioligand binding data, saturation binding curves were generated by fitting the specific binding, which was obtained by subtracting nonspecific from total binding, to a one site specific binding model that allows calculation of Kd values for the radioligand at wild-type and mutant receptors.

[8] = test system: mouse GPR84-Gαi2 fusion protein; assay: [^35S]GTPγS binding assay, membranes of Flp-In TREx 293 cells expressing mouse GPR84-Gαi2; assay type: biochemical
Experimental: as §4

[9] = test system: Ala^102Thr, Gly^363Ser human GPR84; assay: [^35S]GTPγS binding assay, Ala102Thr-Gly363Ser human GPR84 mutant; assay type: biochemical
Experimental: as §3, §4

[10] = biological target: T5, mouse GPR84 (Mus musculus, UniProt Q8CIM5); assay: cAMP regulation assay in CHO cells expressing mouse GPR84; assay type: cell-based; settings: versus EC80 of 6-OAU
T5 construct: expressed in transfected cells

[11] = biological target: T6, pig GPR84 (Sus scrofa, UniProt I6WJ99); assay: cAMP regulation assay in CHO cells expressing pig GPR84; assay type: cell-based; settings: versus EC80 of 6-OAU
T6 construct: expressed in transfected cells

[12] = biological target: macaque GPR84 (Macaca mulatta, UniProt F6W0J1); assay: cAMP regulation assay in CHO cells expressing macaque GPR84; assay type: cell-based; settings: versus EC80 of 6-OAU
[13] = biological target: T7, rat GPR84 (Rattus norvegicus, UniProt D4ACK0); assay: cAMP regulation assay in CHO cells expressing rat GPR84; assay type: cell-based; settings: versus EC80 of 6-OAU
T7 construct: expressed in transfected cells

[14] = biological target: T8, dog GPR84 (Canis lupus familiaris, UniProt A0A8I3P3M6); assay: cAMP regulation assay in CHO cells expressing dog GPR84; assay type: cell-based; settings: versus EC80 of 6-OAU
T8 construct: expressed in transfected cells

[15] = test system: parental Flp-In TREx 293 cells; assay: [^3H]140 binding assay, membranes from parental cells; settings: parental cell membranes
Experimental: (§5) Binding was initiated by the addition of membranes (5 μg of protein per tube). All assays were performed at 25 °C for 1 h before termination by the addition of ice-cold PBS and vacuum filtration through GF/C glassfibre filter-bottom 96-well microplates. Plates were washed three times with ice-cold PBS then allowed to dry for 2–3 h at room temperature. MicroScint-20 was added to dried filter plates, and radioactivity was quantified by liquid scintillation spectrometry. Specific binding was defined as the difference between binding detected in the presence and absence of 10 μM compound 020.

[16] = test system: mouse GPR84-Gαi2 fusion protein; assay: [^3H]140 binding assay, membranes expressing mouse GPR84-Gαi2
Experimental: as §5
All data are presented as means ± SEM of at least three independent experiments. Data analysis and curve fitting was carried out using the GraphPad Prism software package version 8 (GraphPad, San Diego). For functional assays the concentration–response data were plotted on a log axis, with the untreated vehicle control plotted at 1 log unit lower than the lowest ligand concentration and fitted to a three parameter sigmoidal curve with the Hill slope constrained to equal 1. In case of inhibition experiments with antagonists, an equivalent analysis was followed to fit an inverse sigmoidal curve. To perform the statistical analysis of curve parameters, data from multiple experiments were fitted independently and resulting curve fit values were analyzed with indicated tests. […]

[17] = test system: Ala^102Thr, Gly^363Ser human GPR84; assay: [^3H]140 binding assay, Ala102Thr-Gly363Ser human GPR84-Gαi2
Experimental: as §3, §5
All data are presented as means ± SEM of at least three independent experiments. Data analysis and curve fitting was carried out using the GraphPad Prism software package version 8 (GraphPad, San Diego). […] To perform the statistical analysis of curve parameters, data from multiple experiments were fitted independently and resulting curve fit values were analyzed with indicated tests. […]

[18] = biological target: T2, GPR84 in LPS-treated THP-1 cells; assay: [^3H]140 binding assay, membranes of LPS-treated THP-1 cells; settings: LPS-treated THP-1 membranes
Experimental: as §1

T1 sequence (Q9NQS5 whole entry, the tested form may be a part): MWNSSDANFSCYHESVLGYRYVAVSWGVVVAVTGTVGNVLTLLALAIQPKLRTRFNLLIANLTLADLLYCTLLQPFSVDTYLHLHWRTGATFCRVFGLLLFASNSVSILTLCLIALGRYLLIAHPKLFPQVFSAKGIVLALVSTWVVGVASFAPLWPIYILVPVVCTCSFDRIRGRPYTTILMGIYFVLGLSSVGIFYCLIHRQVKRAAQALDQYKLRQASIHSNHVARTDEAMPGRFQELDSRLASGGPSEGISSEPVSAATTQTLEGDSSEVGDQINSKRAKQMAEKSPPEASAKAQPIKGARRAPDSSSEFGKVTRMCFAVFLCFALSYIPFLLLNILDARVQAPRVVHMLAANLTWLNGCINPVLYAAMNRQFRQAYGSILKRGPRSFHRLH
T1 sequence (P04899 2-355, further chain): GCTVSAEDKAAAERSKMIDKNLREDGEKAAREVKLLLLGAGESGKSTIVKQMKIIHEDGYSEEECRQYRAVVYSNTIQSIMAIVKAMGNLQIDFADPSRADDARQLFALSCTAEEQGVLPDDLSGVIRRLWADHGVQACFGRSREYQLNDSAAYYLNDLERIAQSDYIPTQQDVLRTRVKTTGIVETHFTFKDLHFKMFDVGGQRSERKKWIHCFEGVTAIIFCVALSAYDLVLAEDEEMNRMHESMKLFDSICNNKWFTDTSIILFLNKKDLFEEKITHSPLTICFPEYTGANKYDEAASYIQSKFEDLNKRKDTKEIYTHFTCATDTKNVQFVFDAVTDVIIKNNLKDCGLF
T2 sequence (Q9NQS5 whole entry): as the sequence (Q9NQS5 whole entry, the tested form may be a part) above
T7 sequence (D4ACK0 1-396): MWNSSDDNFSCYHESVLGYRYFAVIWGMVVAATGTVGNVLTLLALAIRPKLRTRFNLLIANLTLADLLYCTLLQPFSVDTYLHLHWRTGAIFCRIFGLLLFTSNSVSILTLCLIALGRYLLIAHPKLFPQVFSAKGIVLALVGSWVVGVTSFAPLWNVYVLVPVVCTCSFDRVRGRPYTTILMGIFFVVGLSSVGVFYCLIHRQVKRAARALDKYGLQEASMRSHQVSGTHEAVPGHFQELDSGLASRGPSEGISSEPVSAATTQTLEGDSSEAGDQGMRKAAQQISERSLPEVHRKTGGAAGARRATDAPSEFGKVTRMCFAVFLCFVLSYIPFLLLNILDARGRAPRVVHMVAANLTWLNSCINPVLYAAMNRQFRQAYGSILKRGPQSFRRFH
T6 sequence (I6WJ99 1-396): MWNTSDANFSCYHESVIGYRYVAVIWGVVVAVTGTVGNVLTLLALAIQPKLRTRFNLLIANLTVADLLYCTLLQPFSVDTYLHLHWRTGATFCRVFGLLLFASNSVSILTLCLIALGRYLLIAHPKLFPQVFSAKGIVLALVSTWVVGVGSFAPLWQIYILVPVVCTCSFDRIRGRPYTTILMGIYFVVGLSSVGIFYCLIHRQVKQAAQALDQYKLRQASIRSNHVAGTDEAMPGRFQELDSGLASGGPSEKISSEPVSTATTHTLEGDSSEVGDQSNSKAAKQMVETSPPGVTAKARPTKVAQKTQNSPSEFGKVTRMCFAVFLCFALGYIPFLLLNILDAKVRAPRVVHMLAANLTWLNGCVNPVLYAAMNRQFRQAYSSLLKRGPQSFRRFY
T4 sequence (Q9NQS5 with tags, fused parts or gaps with the stated changes): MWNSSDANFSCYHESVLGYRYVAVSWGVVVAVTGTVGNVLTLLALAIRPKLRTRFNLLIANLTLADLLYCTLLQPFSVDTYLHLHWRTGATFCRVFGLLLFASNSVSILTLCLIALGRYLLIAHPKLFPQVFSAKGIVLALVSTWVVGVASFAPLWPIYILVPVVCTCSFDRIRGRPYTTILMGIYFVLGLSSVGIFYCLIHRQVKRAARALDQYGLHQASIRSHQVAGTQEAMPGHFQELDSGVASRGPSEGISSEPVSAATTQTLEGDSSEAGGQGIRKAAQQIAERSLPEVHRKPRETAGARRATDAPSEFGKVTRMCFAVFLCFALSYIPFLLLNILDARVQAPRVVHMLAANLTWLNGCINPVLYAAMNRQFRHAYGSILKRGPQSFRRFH
T8 sequence (A0A8I3P3M6 1-393): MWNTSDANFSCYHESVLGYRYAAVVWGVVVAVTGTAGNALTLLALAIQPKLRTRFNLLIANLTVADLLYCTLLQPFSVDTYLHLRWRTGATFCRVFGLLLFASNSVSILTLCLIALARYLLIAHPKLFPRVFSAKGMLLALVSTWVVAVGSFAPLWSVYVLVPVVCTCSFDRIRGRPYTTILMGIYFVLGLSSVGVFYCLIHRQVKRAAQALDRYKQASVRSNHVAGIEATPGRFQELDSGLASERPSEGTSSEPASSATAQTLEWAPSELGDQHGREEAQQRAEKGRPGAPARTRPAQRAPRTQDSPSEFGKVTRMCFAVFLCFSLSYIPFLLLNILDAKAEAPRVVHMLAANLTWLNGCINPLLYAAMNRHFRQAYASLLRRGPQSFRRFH
Sequence of macaque GPR84 (F6W0J1 1-396): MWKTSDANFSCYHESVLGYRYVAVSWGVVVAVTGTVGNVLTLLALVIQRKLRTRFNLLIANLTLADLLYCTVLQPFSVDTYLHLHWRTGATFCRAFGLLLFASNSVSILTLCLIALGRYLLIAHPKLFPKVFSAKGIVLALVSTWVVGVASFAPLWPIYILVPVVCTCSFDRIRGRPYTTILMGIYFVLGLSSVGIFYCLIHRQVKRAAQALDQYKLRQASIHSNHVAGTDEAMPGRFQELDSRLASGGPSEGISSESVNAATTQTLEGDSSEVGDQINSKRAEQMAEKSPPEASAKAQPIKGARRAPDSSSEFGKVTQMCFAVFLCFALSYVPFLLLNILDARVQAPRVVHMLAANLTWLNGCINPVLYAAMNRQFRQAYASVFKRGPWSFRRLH
T3 sequence (Q8CIM5 whole entry G345V/R346Q/V354L/S363G): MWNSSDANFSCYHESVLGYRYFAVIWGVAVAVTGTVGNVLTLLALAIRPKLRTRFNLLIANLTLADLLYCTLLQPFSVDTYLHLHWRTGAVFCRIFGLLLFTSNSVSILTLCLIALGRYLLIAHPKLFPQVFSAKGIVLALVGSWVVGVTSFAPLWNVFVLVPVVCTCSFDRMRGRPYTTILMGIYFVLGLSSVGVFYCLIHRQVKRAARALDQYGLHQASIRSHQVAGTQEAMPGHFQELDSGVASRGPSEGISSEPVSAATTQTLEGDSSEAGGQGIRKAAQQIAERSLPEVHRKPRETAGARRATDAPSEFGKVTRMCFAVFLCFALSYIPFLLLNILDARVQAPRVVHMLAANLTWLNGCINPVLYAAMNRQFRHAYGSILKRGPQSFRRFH
Sequence of GPR84 in RAW264.7 cells (Q8CIM5 whole entry): as the sequence (Q8CIM5 whole entry G345V/R346Q/V354L/S363G) above, with V345G, Q346R, L354V, G363S counted along it
T5 sequence (Q8CIM5 whole entry): as the sequence (Q8CIM5 whole entry G345V/R346Q/V354L/S363G) above, with V345G, Q346R, L354V, G363S counted along it

SMILES: Ic1ccc(-c2nnc(Cc3c[nH]c4ccccc34)nc2-c2ccc(I)cc2)cc1 [Compound 441, 3-((5,6-Bis(4-iodophenyl)-1,2,4-triazin-3-yl)methyl)-1H-indole]
- pA2 [1]: 8.07 ± 0.02

SMILES: COc1ccc(-c2nnc(Cc3c[nH]c4ccccc34)nc2-c2ccc(OC)cc2)cc1 [Compound 837, 3-((5,6-Bis(4-methoxyphenyl)-1,2,4-triazin-3-yl)methyl)-1H-indole]
- block of 2-HTP-induced [^35S]GTPγS binding [2]: blocked in a concentration-dependent and high potency manner
- block of activation promoted by 2-HTP ([1]; EC80 of 2-HTP): fully block
- block of activation promoted by 6-OAU ([1]; EC80 of 6-OAU): fully block
- pA2 [1]: 8.90 ± 0.08 and 8.9
- Gaddum/Schild slope [1]: 1.11 ± 0.04
- IC50 ([1]; against an EC80 of embelin): < 100 nM
- reversal of activation produced by DIM ([1]; allosteric activator DIM): fully reversed
- block of inhibition of forskolin-amplified cAMP levels by 2-HTP ([3]; 2-HTP): fully blocked
- block of inhibition of forskolin-amplified cAMP levels by 6-OAU ([3]; 6-OAU): fully blocked
- block of 2-HTP-induced [^35S]GTPγS binding [4]: unable to produce such an effect
- IC50 [5]: 363 nM
- affinity at humanized chimera compared with wild-type human receptor [6]: equal affinity
- block of activation by 2-HTP [7]: able to fully block activation by 2-HTP
- fold higher affinity than at wild-type mouse GPR84 ([7]; from pA2): at least 5000 fold
- fold lower affinity than at wild-type human GPR84 ([7]; from pA2): ~13 fold
- pA2 ([7]; versus 2-HTP, mean ± SEM n = 3): 7.78 ± 0.08
- antagonism of mouse GPR84 ([8]; EC80 of 2-HTP): no significant capacity to antagonize
- affinity (from pA2) ([8]; wild-type mouse GPR84): < 100 μM
- block of activation by 2-HTP [9]: unable to block
- fold lower affinity than at wild-type human GPR84 ([9]; from pA2): 380 fold
- pA2 ([9]; versus 2-HTP, mean ± SEM n = 3): 6.33 ± 0.15

SMILES: CC(=O)OCc1ccc(-c2nc(Cc3c[nH]c4ccccc34)nnc2-c2ccccc2)cc1 [Compound 020, 4-(3-((1H-indol-3-yl)methyl)-6-phenyl-1,2,4-triazin-5-yl)benzyl acetate]
- pA2 [1]: 9.19 ± 0.10
- Gaddum/Schild slope [1]: 1.27 ± 0.03
- pA2 ([8]; Gaddum/Schild analysis versus 2-HTP, wild-type mouse GPR84): < 6.0
- fold higher concentrations than required to antagonize human GPR84 ([8]; limited effects at mouse GPR84): at least 1000 fold

SMILES: c1ccc(-c2nnc(Cc3c[nH]c4ccccc34)nc2-c2ccccc2)cc1 [Compound 140, 3-((5,6-Diphenyl-1,2,4-triazin-3-yl)methyl)-1H-indole]
- IC50 [10]: > 10000 nM
- IC50 [11]: 5.6 nM
- IC50 [12]: 6.4 nM
- IC50 [13]: 8700 nM
- IC50 [14]: 8.1 nM

SMILES: c1ccc(-c2nnc(Cc3c[nH]c4ccccc34)nc2-c2ccccc2)cc1 [[^3H]140, [^3H]3-((5,6-diphenyl-1,2,4-triazin-3-yl)methyl)-1H-indole]
- specific binding [15]: no specific binding
- specific binding [16]: unable to detect specific binding
- direct binding [17]: not possible to measure binding
- Bmax [18]: 905 ± 93 fmol/mg membrane protein

SMILES: CC(=O)OCc1ccc(-c2nnc(Cc3c[nH]c4ccccc34)nc2-c2ccccc2)cc1 [Compound 021, 4-(3-((1H-indol-3-yl)methyl)-5-phenyl-1,2,4-triazin-6-yl)benzyl acetate]
- pA2 [1]: 9.31 ± 0.10
- Gaddum/Schild slope [1]: 1.14 ± 0.03
